From US12545639B2, “3-substituted phenylamidine compounds, preparation and use thereof” (PI INDUSTRIES LTD., priority 2019, dated 2026)

Columns and labels:
[1] = tested on: Alternaria solani; experiment: Alternaria solani (early blight of tomato/potato) in vitro test, radial growth on potato dextrose agar; assay type: cell-based; details: 168 h, 300 ppm in potato dextrose agar, 25° C., 60% relative humidity, seven days, read-out: control compared to the untreated check (radial growth)
[2] = tested on: Rhizoctonia solani; experiment: Rhizoctonia solani (rice sheath blight/potato black scurf) in vitro test, radial growth on potato dextrose agar; assay type: cell-based; details: 168 h, 300 ppm in potato dextrose agar, 25° C., 60% relative humidity, seven days, read-out: control compared to the untreated check (radial growth)
[3] = tested on: Septoria lycopersici/Corynespora cassicola (CORYCA); experiment: Septoria lycopersici/Corynespora cassicola (CORYCA) (leaf spot of tomato) in vitro test, radial growth on potato dextrose agar; assay type: cell-based; details: 168 h, 300 ppm in potato dextrose agar, 25° C., 70% relative humidity, seven days, read-out: control compared to the untreated check (radial growth)
[4] = tested on: Phakopsora pachyrhizi; experiment: Phakopsora pachyrhizi test in soybean, preventive, in vivo on plants; details: in Glycine max, read-out: Efficacy (% control), disease severity compared to the untreated check
[5] = tested on: Botrytis cinerea; experiment: Botrytis cinerea (gray mold) in vitro test, radial growth on potato dextrose agar; assay type: cell-based; details: 168 h, 300 ppm in potato dextrose agar, 22° C., 90% relative humidity, seven days, read-out: control compared to the untreated check (radial growth)
[6] = tested on: Colletotrichum capsici; experiment: Colletotrichum capsici (anthracnose) in vitro test, radial growth on potato dextrose agar; assay type: cell-based; details: Colletotrichum truncatum, 168 h; 300 ppm in potato dextrose agar; 25° C., 60% relative humidity, seven days; read-out: control compared to the untreated check (radial growth)
[7] = tested on: Pyricularia oryzae; experiment: microbe, parasite or virus in culture; assay type: cell-based; details: 168 h, read-out: control compared to the untreated check (radial growth)

CCN(C)C=Nc1cc(C)cc(Cc2ccc(Br)c(C)c2)c1Cl [Compound 216, N′-(3-(4-bromo-3-methylbenzyl)-2-chloro-5-methylphenyl)-N-ethyl-N-methylformimidamide]
≥ 70%: inhibition of growth at 300 ppm [1] | inhibition of growth at 300 ppm [2] | inhibition of growth at 300 ppm [3] | pest or weed control at 500 ppm [4] | inhibition of growth at 300 ppm [5] | inhibition of growth at 300 ppm [6] | inhibition of growth at 300 ppm [7]

CCN(C)C=Nc1cc(F)cc(N(C)c2cccc(C)c2)c1C [Compound 38, N-ethyl-N′-(5-fluoro-2-methyl-3-(methyl(m-tolyl)amino)phenyl)-N-methylformimidamide]
≥ 70%: inhibition of growth at 300 ppm [1] | inhibition of growth at 300 ppm [2] | inhibition of growth at 300 ppm [3] | pest or weed control at 500 ppm [4] | inhibition of growth at 300 ppm [5] | inhibition of growth at 300 ppm [6] | inhibition of growth at 300 ppm [7]

CCN(C)C=Nc1cc(C)cc(Cc2cccc(F)c2)c1Br [Compound 189, N′-(2-bromo-3-(3-fluorobenzyl)-5-methylphenyl)-N-ethyl-N-methylformimidamide]
≥ 70%: inhibition of growth at 300 ppm [1] | inhibition of growth at 300 ppm [2] | inhibition of growth at 300 ppm [3] | pest or weed control at 500 ppm [4] | inhibition of growth at 300 ppm [6] | inhibition of growth at 300 ppm [7]

CCN(C)C=Nc1cc(F)cc(N(C)c2ccccc2)c1C [Compound 11, N-ethyl-N′-(5-fluoro-2-methyl-3-(methyl(phenyl)amino)phenyl)-N-methylformimidamide]
≥ 70%: inhibition of growth at 300 ppm [1] | inhibition of growth at 300 ppm [2] | inhibition of growth at 300 ppm [3] | inhibition of growth at 300 ppm [5] | inhibition of growth at 300 ppm [6]

CCN(C)C=Nc1cc(C)cc(Nc2ccccc2C)c1Cl [Compound 24, N′-(2-chloro-5-methyl-3-(o-tolylamino)phenyl)-N-ethyl-N-methylformimidamide]
≥ 70%: inhibition of growth at 300 ppm [1] | inhibition of growth at 300 ppm [2] | inhibition of growth at 300 ppm [3] | inhibition of growth at 300 ppm [5] | inhibition of growth at 300 ppm [6] | inhibition of growth at 300 ppm [7]

CCN(C)C=Nc1cc(F)cc(Nc2cc(F)cc(Cl)c2)c1C [Compound 96, N′-(3-((3-chloro-5-fluorophenyl)amino)-5-fluoro-2-methylphenyl)-N-ethyl-N-methylformimidamide]
≥ 70%: inhibition of growth at 300 ppm [1] | inhibition of growth at 300 ppm [2] | inhibition of growth at 300 ppm [3] | inhibition of growth at 300 ppm [5] | inhibition of growth at 300 ppm [6] | inhibition of growth at 300 ppm [7]

CCN(C)C=Nc1cc(Cl)cc(N(C)c2cnccn2)c1C [Compound 213, N′-(5-chloro-2-methyl-3-(methyl(pyrazin-2-yl)amino)phenyl)-N-ethyl-N-methylformimidamide]
≥ 70%: inhibition of growth at 300 ppm [1] | inhibition of growth at 300 ppm [2] | inhibition of growth at 300 ppm [3] | inhibition of growth at 300 ppm [5] | inhibition of growth at 300 ppm [6] | inhibition of growth at 300 ppm [7]

CCN(C)C=Nc1cc(C)cc(Nc2cccc(C)c2F)c1Cl [Compound 123, N′-(2-chloro-3-((2-fluoro-3-methylphenyl)amino)-5-methylphenyl)-N-ethyl-N-methylformimidamide]
≥ 70%: inhibition of growth at 300 ppm [1] | inhibition of growth at 300 ppm [3] | pest or weed control at 500 ppm [4] | inhibition of growth at 300 ppm [5] | inhibition of growth at 300 ppm [6] | inhibition of growth at 300 ppm [7]

CCN(C)C=Nc1cc(C)cc(Nc2ccccc2)c1Cl [Compound 9, N′-(2-chloro-5-methyl-3-(phenylamino)phenyl)-N-ethyl-N-methylformimidamide]
≥ 70%: inhibition of growth at 300 ppm [1] | inhibition of growth at 300 ppm [2] | inhibition of growth at 300 ppm [3] | inhibition of growth at 300 ppm [5] | inhibition of growth at 300 ppm [6] | inhibition of growth at 300 ppm [7]

CCN(C)C=Nc1cc(C)cc(N(C)c2ncc(Cl)cc2C)c1Cl [Compound 118, N′-(2-chloro-3-((5-chloro-3-methylpyridin-2-yl)(methyl)amino)-5-methylphenyl)-N-ethyl-N-methylformimidamide]
≥ 70%: inhibition of growth at 300 ppm [1] | inhibition of growth at 300 ppm [3] | inhibition of growth at 300 ppm [5] | inhibition of growth at 300 ppm [6] | inhibition of growth at 300 ppm [7]

CCN(C)C=Nc1cc(F)cc(Nc2cccc(Cl)c2)c1C [Compound 37, N′-(3-((3-chlorophenyl)amino)-5-fluoro-2-methylphenyl)-N-ethyl-N-methylformimidamide]
≥ 70%: inhibition of growth at 300 ppm [1] | inhibition of growth at 300 ppm [2] | inhibition of growth at 300 ppm [3] | inhibition of growth at 300 ppm [5] | inhibition of growth at 300 ppm [6] | inhibition of growth at 300 ppm [7]

CCN(C)C=Nc1cc(C)cc(Cc2ccccc2C)c1Br [Compound 209, N′-(2-bromo-5-methyl-3-(2-methylbenzyl)phenyl)-N-ethyl-N-methylformimidamide]
≥ 70%: inhibition of growth at 300 ppm [1] | inhibition of growth at 300 ppm [2] | inhibition of growth at 300 ppm [3] | pest or weed control at 500 ppm [4] | inhibition of growth at 300 ppm [6]

CCN(C)C=Nc1cc(Cl)cc(Cc2ccc(Cl)c(F)c2)c1C [Compound 131, N′-(5-chloro-3-(4-chloro-3-fluorobenzyl)-2-methylphenyl)-N-ethyl-N-methylformimidamide]
≥ 70%: inhibition of growth at 300 ppm [1] | inhibition of growth at 300 ppm [2] | inhibition of growth at 300 ppm [3] | pest or weed control at 500 ppm [4] | inhibition of growth at 300 ppm [6] | inhibition of growth at 300 ppm [7]

CCN(C)C=Nc1cc(F)cc(Nc2ccccc2C)c1C [Compound 15, N-ethyl-N′-(5-fluoro-2-methyl-3-(o-tolylamino)phenyl)-N-methylformimidamide]
≥ 70%: inhibition of growth at 300 ppm [1] | inhibition of growth at 300 ppm [2] | inhibition of growth at 300 ppm [3] | inhibition of growth at 300 ppm [5] | inhibition of growth at 300 ppm [6] | inhibition of growth at 300 ppm [7]

CCN(C)C=Nc1cc(C)cc(Cc2ccccc2F)c1C [Compound 219, N-ethyl-N′-(3-(2-fluorobenzyl)-2,5-dimethylphenyl)-N-methylformimidamide]
≥ 70%: inhibition of growth at 300 ppm [1] | inhibition of growth at 300 ppm [2] | inhibition of growth at 300 ppm [3] | pest or weed control at 500 ppm [4] | inhibition of growth at 300 ppm [6] | inhibition of growth at 300 ppm [7]

CCN(C)C=Nc1cc(F)cc(Nc2cc(C)ccc2Cl)c1C [Compound 113, N′-(3-((2-chloro-5-methylphenyl)amino)-5-fluoro-2-methylphenyl)-N-ethyl-N-methylformimidamide]
≥ 70%: inhibition of growth at 300 ppm [1] | inhibition of growth at 300 ppm [2] | inhibition of growth at 300 ppm [3] | pest or weed control at 500 ppm [4] | inhibition of growth at 300 ppm [6] | inhibition of growth at 300 ppm [7]

CCN(C)C=Nc1cc(C)cc(Nc2ccccc2F)c1Cl [Compound 23, N′-(2-chloro-3-((2-fluorophenyl)amino)-5-methylphenyl)-N-ethyl-N-methylformimidamide]
≥ 70%: inhibition of growth at 300 ppm [1] | inhibition of growth at 300 ppm [2] | inhibition of growth at 300 ppm [3] | pest or weed control at 500 ppm [4] | inhibition of growth at 300 ppm [6] | inhibition of growth at 300 ppm [7]

CCN(C)C=Nc1cc(F)cc(Nc2ccccc2F)c1C [Compound 19, N-ethyl-N′-(5-fluoro-3-((2-fluorophenyl)amino)-2-methylphenyl)-N-methylformimidamide]
≥ 70%: inhibition of growth at 300 ppm [1] | inhibition of growth at 300 ppm [2] | inhibition of growth at 300 ppm [3] | inhibition of growth at 300 ppm [5] | inhibition of growth at 300 ppm [6] | inhibition of growth at 300 ppm [7]
